Data taken from ChEMBL document CHEMBL1147394, “Zaragozic acids D and D2: potent inhibitors of squalene synthase and of Ras farnesyl-protein transferase” (J Nat Prod, 1993).

Experiments:
[1] = Inhibition of bovine Ras FPTase; parameters: species or system Bos taurus
[2] = molecular target: T1, Squalene synthase (Rattus norvegicus, UniProt Q02769); assay: Inhibition of rat liver squalene synthase by liqiud scintillation counting
T1 sequence (Q02769 whole entry): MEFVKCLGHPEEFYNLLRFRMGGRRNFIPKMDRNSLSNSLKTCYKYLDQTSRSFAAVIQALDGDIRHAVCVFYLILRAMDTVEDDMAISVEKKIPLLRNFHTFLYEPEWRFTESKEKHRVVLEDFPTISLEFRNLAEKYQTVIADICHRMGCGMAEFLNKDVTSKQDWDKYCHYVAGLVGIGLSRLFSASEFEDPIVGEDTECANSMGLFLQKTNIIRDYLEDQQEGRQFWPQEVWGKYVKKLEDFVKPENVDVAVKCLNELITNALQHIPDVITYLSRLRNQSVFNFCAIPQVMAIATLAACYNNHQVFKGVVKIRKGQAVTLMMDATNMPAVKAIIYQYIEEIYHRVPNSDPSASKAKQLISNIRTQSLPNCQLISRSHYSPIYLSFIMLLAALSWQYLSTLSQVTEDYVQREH

| Compound | IC50 [1] [nM] | IC50 [2] [nM] |
| --- | --- | --- |
| C/C=C/CCCC/C=C/CCCCC(=O)O[C@@H]1[C@@H](O)[C@@]2(CCC(C)C(O)C(C)C/C=C/c3ccccc3)O[C@H](C(=O)O)[C@@](O)(C(=O)O)[C@]1(C(=O)O)O2 (some centres undefined) [ZARAGOZIC ACID B] | 1000 | 0.2 |
| CC(=O)O[C@H](CCC[C@]12O[C@H](C(=O)O)[C@@](O)(C(=O)O)[C@](C(=O)O)(O1)[C@H](OC(=O)CC/C=C/[C@H](C)CCCc1ccccc1)[C@H]2O)[C@H](C)Cc1ccccc1 [ZARAGOZIC ACID C] | 150 | 0.4 |
| CCCCCCCCCC(=O)O[C@@H]1[C@@H](O)[C@@]2(CCCC(OC(C)=O)C(C)C/C=C/c3ccccc3)O[C@H](C(=O)O)[C@@](O)(C(=O)O)[C@]1(C(=O)O)O2 (some centres undefined) [ZARAGOZIC ACID D2] | 100 | 2 |
| C=C(CC[C@]12O[C@H](C(=O)O)[C@@](O)(C(=O)O)[C@](C(=O)O)(O1)[C@H](OC(=O)/C=C/[C@@H](C)C[C@@H](C)CC)[C@H]2O)[C@@H](OC(C)=O)[C@H](C)Cc1ccccc1 [ZARAGOZIC ACIDS A] | 250 |  |
| CCCCCCCC(=O)O[C@@H]1[C@@H](O)[C@@]2(CCCC(OC(C)=O)C(C)C/C=C/c3ccccc3)O[C@H](C(=O)O)[C@@](O)(C(=O)O)[C@]1(C(=O)O)O2 (some centres undefined) [ZARAGOZIC ACID D] | 100 | 6 |
